Assay results: patent publication US20130029981A1, “COMPOUNDS, COMPOSITIONS, AND METHODS FOR CONTROLLING BIOFILMS” (Katholieke Universiteit Leuven, priority 2009, published 2013)
Values joined by “and” are separate entries in the source; they are usually repeats but may differ in a detail not shown here. Identical values can stand only once. Like-named read-outs stand apart in the source and are kept apart here.

Legend:
Conditions in all cases: 25° C.
[1] = tested on: Salmonella Typhimurium ATCC 14028; experiment: Antibacterial activity: growth inhibition, OD600 after 24 h (GIC50); format: cell-based
Description: Evaluation of antibacterial-inhibitory activity of some substituted 2-amino-1H-imidazoles of the invention was carried out by diluting an overnight culture of Salmonella Typhimurium ATCC 14028 into a liquid medium. 200 μl of the diluted overnight culture was added to each well of a microtiter plate together with different concentrations of the test compound (1/2 dilution series of the compound). After an incubation of 24 hours the optical density at 600 nm of each well was determined with a microtiter plate reader.
(§1) Starting from a 40 mM stock solution of each compound in DMSO, two-fold serial dilutions in 100 μl liquid broth per well were prepared in dublicate in sterile transparant microtiter plates. The broth used was TSB 1/20 for measurements at 25° C. and CFA (in case of Salmonella Typhimurium) and LBNS (in case of Pseudomonas aeruginosa) for measurements at 37° C. Subsequently an overnight culture of the bacteria (S. Typhimurium ATCC14028 or P. aeruginosa PA14) was diluted 1/200 into the corresponding liquid broth and 100 μl was added to each well of the microtiterplate resulting in a total amout of 200 μl medium per well. After an incubation of 24 hours the optical density at 600 nm of each well was determined with a microtiter plate reader (VERSAmax, Molecular Devices).
(§2) Evaluation of antibacterial-inhibitory activity of some substituted imidazo[1,2-a]pyrimidinium bromide salts of the invention was carried out by diluting an overnight culture of Salmonella Typhimurium ATCC14028 or Pseudomonas aeruginosa PA141/200 into liquid medium. 200 μl of the diluted overnight culture was added to each well of a microtiterplate together with different concentrations of the test compound (1/2 dilution series of the compound). After an incubation of 24 hours the optical density at 600 nm of each well was determined with a microtiter plate reader.

S. Typhimurium ATCC14028 = experiment: Static peg assay for prevention of biofilm formation (Calgary device, crystal violet); format: cell-based, Salmonella Typhimurium
Summary of the method: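 Calgary 96-peg device, ca. 10^6 cells of ATCC14028 per well in TSB 1/20 for 24 h at 25° C (or 48 h at 16° C, medium and compound renewed at 24 h), or in CFA broth for 24 h at 37° C, static, with two-fold compound dilutions. Crystal violet stain, acetic acid extraction, OD570. IC50 from 2–3 independent experiments.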

[2] = tested on: Pseudomonas aeruginosa PA14; experiment: Antibacterial activity: growth inhibition, OD600 after 24 h (GIC50); format: cell-based
Description: as §1
as §2, with “reader. […] The GIC50 values of representative compounds for antibacterial activity are shown in the following Tables 9 and 10 (wherein Ph stands for phenyl, Me for methyl): […]” for “reader.”

[3] = Table 11, read-out: IC50 (biofilm formation)
[4] = Table 14, read-out: IC50 biofilm inhibition
[5] = Table 18, read-out: S. Typhimurium IC50 (biofilm formation)

CCCCCCN1c2nccc[n+]2CC1(O)c1ccc([N+](=O)[O-])cc1.[Br-] (centres unmarked) [Compound 34]
IC50 [1]: 100 to 200 µM | IC50 (S. Typhimurium ATCC14028; 24 hours, Table 15, read-out: (1) IC50 (biofilm inhibition)): 54.7 µM | IC50 (S. Typhimurium ATCC14028; [3]): 46.8 µM | IC50 (S. Typhimurium ATCC14028; [4]): 46.8 µM | IC50 (S. Typhimurium ATCC14028; Table 16, read-out: S. Typhimurium IC50 (biofilm formation)): 54.7 µM

OC1(c2ccc(Cl)cc2)C[n+]2cccnc2N1C1CCCCC1.[Br-] (centres unmarked) [Compound 64]
IC50 [1]: 50 to 100 µM | IC50 (S. Typhimurium ATCC14028; Table 11, listed as R1=cyclohexyl, R3=4-Cl—Ph, R4=H, read-out: IC50 (biofilm formation)): 43.8 µM and 35.6 µM | IC50 (S. Typhimurium ATCC14028; Table 14, listed as R1=Cyclohexyl, R3=4-ClPh, R4=H, read-out: IC50 biofilm inhibition): 43.8 µM and 35.6 µM | IC50 (S. Typhimurium ATCC14028; [5]): 33 µM | IC50 [2]: 61.3 µM

O=[N+]([O-])c1ccc(C2(O)C[n+]3cccnc3N2C2CCCCCCCCCCC2)cc1.[Br-] (centres unmarked) [Compound 69]
IC50 [1]: < 6 µM | IC50 (S. Typhimurium ATCC14028; [3]): < 6.25 µM | IC50 (S. Typhimurium ATCC14028; [4]): < 6.25 µM | IC50 (S. Typhimurium ATCC14028; [5]): < 6.3 µM | IC50 [2]: 8.89 µM

OC1(c2ccc(I)cc2)C[n+]2cccnc2N1Cc1ccccc1.[Br-] (centres unmarked) [Compound 73]
IC50 ([1]; listed as R1=Benzyl, R3=4-I—Ph, R4=H): 50 µM | IC50 ([1]; listed as R1=benzyl, R3=4-I—ph, R4=H): 50 to 100 µM | IC50 (S. Typhimurium ATCC14028; Table 11, listed as R1=Bn, R3=4-I—Ph, R4=H, read-out: IC50 (biofilm formation)): 30.7 µM and 26.9 µM | IC50 (S. Typhimurium ATCC14028; Table 14, listed as R1=Bn, R3=4-IPh, R4=H, read-out: IC50 biofilm inhibition): 26.9 µM | IC50 (S. Typhimurium ATCC14028; Table 14, listed as R1=Bn, R3=4-Iph, R4=H, read-out: IC50 biofilm inhibition): 30.7 µM | IC50 (S. Typhimurium ATCC14028; Table 19, read-out: IC50 (biofilm formation)): 36.7 µM | IC50 [2]: 51.7 µM

OC1(c2ccc(-c3ccccc3)cc2)C[n+]2cccnc2N1C1CCCC1.[Br-] (centres unmarked) [R1=Cyclopentyl, R3=4-biphenylyl, R4=H, 1-cyclopentyl-2-hydroxy-2-(4-biphenylyl)-2,3-dihydro-1H-imidazo[1,2-a]pyrimidin-4-ium bromide]
IC50 ([1]; Salmonella enterica): 25 to 50 µM | IC50 (S. Typhimurium ATCC14028; Salmonella enterica, Table 11, read-out: IC50 (biofilm formation)): 14.9 µM | IC50 (S. Typhimurium ATCC14028; Salmonella enterica, Table 14, read-out: IC50 biofilm inhibition): 14.9 µM | IC50 ([2]; Pseudomonas aeruginosa, PA14): 27.1 µM
